pIC50: −log10 of the molar value.
Target: T1, Glutathione S-transferase (mainly GSTP1-1, from human placenta) (Homo sapiens, UniProt P09211)
T1 construct: GST from human placenta (mainly GSTP1-1), Sigma
Experiment: GSH/CDNB conjugation assay at […] nm; Hanes plot kinetics
Format: biochemical

T1 sequence (P09211 2-210): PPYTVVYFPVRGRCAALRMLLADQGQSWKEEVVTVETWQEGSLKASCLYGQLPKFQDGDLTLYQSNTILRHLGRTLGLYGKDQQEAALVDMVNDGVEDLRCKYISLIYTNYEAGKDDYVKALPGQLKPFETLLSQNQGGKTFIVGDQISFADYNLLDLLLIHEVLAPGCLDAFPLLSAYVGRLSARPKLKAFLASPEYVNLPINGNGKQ

pIC50: 6.52
SMILES: COc1cc(/C=C/COC(=O)/C=C/c2ccc(O)c(OC)c2)ccc1O [CF, Coniferyl ferulate]

From PMC3766616, “Coniferyl Ferulate, a Strong Inhibitor of Glutathione S-Transferase Isolated from Radix Angelicae sinensis, Reverses Multidrug Resistance and Downregulates P-Glycoprotein” (Evidence-based Complementary and Alternative Medicine : eCAM, 2013)
